According to patent publication US11780927B2, “Anti-CD40 antibodies for use in prevention of graft rejection” (NOVARTIS AG, priority 2018, dated 2023):

Legend:
[1] = Plasma concentrations in solid organ transplantation patients; type: in vivo, human
Description: Without wishing to be bound by theory, the inventors have identified that sustained plasma concentrations at least about 40 μg/mL of the CFZ533 antibody was necessary to block the CD40-CD40L pathway in target tissues in solid organ transplantation patients. Thus, with a dosing regimen providing, throughout the entire treatment period, sustained plasma concentrations of at least 40 μg/mL and up to 400 μg/mL, in situations where CD40 expression in affected tissues would be enhanced (severity of the condition, activation of the immune system post transplantation), is considered for a therapeutic effect.

[2] = test system: human whole blood, PBMCs, monocyte-derived DCs, HUVECs; test: Stimulatory potential in vitro (proliferation, CD69, cytokines); type: cell-based
Description: The ability of CFZ533 to stimulate activation of human leukocytes was assessed using proliferation and upregulation of the activation molecule CD69 on B cells in whole blood. […] Human whole blood from multiple donors (n=13) were incubated with a dose titration of CFZ533, and proliferation (^3H-TdR) was assessed after three days of culture. ii. Human PBMCs from multiple donors (n=26) were incubated with a dose titration of CFZ533, and proliferation (^3H-TdR) was assessed after three days of culture. For both graphs, data is presented as mean and SD of normalized cpm as a function of log-transformed CFZ533 concentration (rCD154+IL-4=100; dotted lines, cells plus media=0; dashed lines). […] Human PBMCs were stimulated for 3 days with a dose titration of CFZ533 in the presence of IL-4 (i) or anti-IgM F(ab′)2. (ii). The mean and SD of 3H-TdR (cpm) is shown as a function of log-transformed CFZ533 concentration. In FIG. 6C it is shown how human whole blood (41 donors) was cultured overnight with no stimuli, CFZ533, isotype control or rCD154 and CD69 expression on B cells was assessed by FACS. Each dot represents data from a single donor with mean % CD69 values indicated by a horizontal red line.

CFZ533: human anti-CD40 IgG1 monoclonal antibody with Fc-silencing N297A mutation; heavy chain SEQ ID NO: 9, light chain SEQ ID NO: 10
Safety and tolerability at maximum plasma concentration ([1]; about 400 μg/ml at steady state): generally safe and well tolerated
Thromboembolic events ([1]; human, in vivo): No thromboembolic events were observed
observed maximum plasma concentration at steady state ([1]; human, in vivo): about 400 μg/ml
sustained plasma concentration necessary to block the CD40-CD40L pathway in target tissues ([1]; solid organ transplantation patients): at least 40 μg/mL
Induction of thymidine incorporation (proliferation) ([2]; human whole blood (1:10 dilution) or PBMCs, three days): unable to induce thymidine incorporation
Induction of CD69 upregulation on B cells ([2]; human whole blood, overnight): unable to induce upregulation of CD69
Induction of cytokine production ([2]; monocyte-derived DCs or HUVECs): unable to induce cytokine production
